From US10131652B2, “Pyrimidinyloxy benzene derivatives as herbicides” (E. I. DU PONT DE NEMOURS AND COMPANY, priority 2014, dated 2018)
Read-outs that look alike come from different tables or passages of the source.

Experiments:
Assay in all cases: Test F pre-/postemergence plant response
Type in all cases: in vivo
[1] = tested on: dayflower (Virginia (VA) dayflower, Commelina virginica); settings: Commelina virginica, scale 0 to 100, read-out: Plant response rating, Dayflower, VA
Method in brief: (§1)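 Two application timings were run side by side: soil surface treatment of freshly planted seed in silt loam, and foliar treatment of seedlings 2 to 18 cm high. Plants stayed in the greenhouse 14 to 21 days before visual 0–100 injury scoring against controls.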

[2] = tested on: barnyardgrass (Echinochloa crus-galli); settings: Echinochloa crus-galli, scale 0 to 100, read-out: Plant response rating, Barnyardgrass
Method in brief: as §1

[3] = tested on: surinam grass (Brachiaria decumbens); settings: Urochloa decumbens, pre-emergence, scale 0 to 100, read-out: Plant response rating, Surinam Grass
Method in brief: as §1

corn (Zea mays) = settings: Zea mays, scale 0 to 100
Method in brief: as §1

[4] = tested on: yellow nutsedge (Cyperus esculentus); settings: Cyperus, pre-emergence, scale 0 to 100, read-out: Plant response rating, Nutsedge, Yellow
Method in brief: as §1

[5] = tested on: ragweed (common ragweed, Ambrosia elatior); settings: Ambrosia artemisiifolia, pre-emergence, scale 0 to 100, read-out: Plant response rating, Ragweed
Method in brief: as §1

[6] = tested on: velvetleaf (Abutilon theophrasti); settings: Abutilon theophrasti, pre-emergence, scale 0 to 100, read-out: Plant response rating, Velvetleaf
Method in brief: as §1

[7] = tested on: arrowleaf sida (Sida rhombifolia); settings: Sida rhombifolia, scale 0 to 100, read-out: Plant response rating, Arrowleaf Sida
Method in brief: as §1

[8] = tested on: goosegrass (Eleusine indica); settings: Eleusine indica, pre-emergence, scale 0 to 100, read-out: Plant response rating, Goosegrass
Method in brief: as §1

[9] = post-emergence, 8 g ai/ha Postemergence
[10] = post-emergence, 16 g ai/ha Postemergence
[11] = post-emergence, 31 g ai/ha Postemergence
[12] = post-emergence, 62 g ai/ha Postemergence
[13] = post-emergence, 125 g ai/ha Postemergence
[14] = pre-emergence, 8 g ai/ha Preemergence
[15] = pre-emergence, 16 g ai/ha Preemergence
[16] = pre-emergence, 31 g ai/ha Preemergence
[17] = pre-emergence, 62 g ai/ha Preemergence
[18] = pre-emergence, 125 g ai/ha Preemergence

Q: How did the pest or weed control at 8 g/ha [1, 9] turn out when FC(F)c1cc(-c2ccccc2Oc2ncc(Br)cn2)no1 [Compound 62, 5-bromo-2-[2-[5-(difluoromethyl)-3-isoxazolyl]phenoxy]pyrimidine] was run?
A: 0%

Q: And the pest or weed control at 16 g/ha [1, 10]?
A: 0%

Q: What about the pest or weed control at 31 g/ha [1, 11] of the same compound?
A: 5%

Q: What about the pest or weed control at 62 g/ha [1, 12] of the same compound?
A: 25%

Q: What about the pest or weed control at 125 g/ha [1, 13] of the same compound?
A: 65%

Q: And the pest or weed control at 8 g/ha [1, 14]?
A: 0%

Q: What about the pest or weed control at 16 g/ha [1, 15] of the same compound?
A: 0%

Q: And the pest or weed control at 31 g/ha [1, 16]?
A: 0%

Q: What about the pest or weed control at 62 g/ha [1, 17] of the same compound?
A: 30%

Q: What about the pest or weed control at 125 g/ha [1, 18] of the same compound?
A: 80%

Q: And the pest or weed control at 8 g/ha [2, 9]?
A: 10%

Q: And the pest or weed control at 16 g/ha [2, 10]?
A: 15%

Q: And the pest or weed control at 31 g/ha [2, 11]?
A: 20%

Q: And the pest or weed control at 62 g/ha [2, 12]?
A: 20%

Q: What about the pest or weed control at 125 g/ha [2, 13] of the same compound?
A: 20%

Q: What about the pest or weed control at 8 g/ha [2, 14] of the same compound?
A: 0%

Q: And the pest or weed control at 16 g/ha [2, 15]?
A: 0%

Q: What about the pest or weed control at 31 g/ha [2, 16] of the same compound?
A: 0%

Q: And the pest or weed control at 62 g/ha [2, 17]?
A: 0%

Q: What about the pest or weed control at 125 g/ha [2, 18] of the same compound?
A: 25%

Q: What about the pest or weed control at 8 g/ha ([3]; 8 g ai/ha Preemergence) of the same compound?
A: 0%

Q: And the pest or weed control at 16 g/ha ([3]; 16 g ai/ha Preemergence)?
A: 0%

Q: What about the pest or weed control at 31 g/ha ([3]; 31 g ai/ha Preemergence) of the same compound?
A: 15%

Q: And the pest or weed control at 125 g/ha ([3]; 125 g ai/ha Preemergence)?
A: 10%

Q: What about the pest or weed control at 62 g/ha ([3]; Preemergence) of the same compound?
A: 15%

Q: What about the Corn plant response rating (crop injury, 0 = no effect, 100 = complete kill) at 8 g/ha (corn (Zea mays); [9]) of the same compound?
A: 0%

Q: What about the Corn plant response rating (crop injury, 0 = no effect, 100 = complete kill) at 16 g/ha (corn (Zea mays); [10]) of the same compound?
A: 0%

Q: And the Corn plant response rating (crop injury, 0 = no effect, 100 = complete kill) at 31 g/ha (corn (Zea mays); [11])?
A: 0%

Q: And the Corn plant response rating (crop injury, 0 = no effect, 100 = complete kill) at 62 g/ha (corn (Zea mays); [12])?
A: 5%

Q: And the Corn plant response rating (crop injury, 0 = no effect, 100 = complete kill) at 125 g/ha (corn (Zea mays); [13])?
A: 10%

Q: What about the Corn plant response rating (crop injury, 0 = no effect, 100 = complete kill) at 8 g/ha (corn (Zea mays); [14]) of the same compound?
A: 0%

Q: What about the Corn plant response rating (crop injury, 0 = no effect, 100 = complete kill) at 16 g/ha (corn (Zea mays); [15]) of the same compound?
A: 0%

Q: What about the Corn plant response rating (crop injury, 0 = no effect, 100 = complete kill) at 31 g/ha (corn (Zea mays); [16]) of the same compound?
A: 0%

Q: What about the Corn plant response rating (crop injury, 0 = no effect, 100 = complete kill) at 62 g/ha (corn (Zea mays); [17]) of the same compound?
A: 0%

Q: What about the Corn plant response rating (crop injury, 0 = no effect, 100 = complete kill) at 125 g/ha (corn (Zea mays); [18]) of the same compound?
A: 0%

Q: And the pest or weed control at 8 g/ha ([4]; 8 g ai/ha Preemergence)?
A: 0%

Q: What about the pest or weed control at 16 g/ha ([4]; 16 g ai/ha Preemergence) of the same compound?
A: 0%

Q: What about the pest or weed control at 31 g/ha ([4]; 31 g ai/ha Preemergence) of the same compound?
A: 0%

Q: What about the pest or weed control at 125 g/ha ([4]; 125 g ai/ha Preemergence) of the same compound?
A: 0%

Q: What about the pest or weed control at 62 g/ha ([4]; Preemergence) of the same compound?
A: 0%

Q: And the pest or weed control at 8 g/ha ([5]; 8 g ai/ha Preemergence)?
A: 0%

Q: What about the pest or weed control at 16 g/ha ([5]; 16 g ai/ha Preemergence) of the same compound?
A: 20%

Q: What about the pest or weed control at 31 g/ha ([5]; 31 g ai/ha Preemergence) of the same compound?
A: 25%

Q: What about the pest or weed control at 125 g/ha ([5]; 125 g ai/ha Preemergence) of the same compound?
A: 35%

Q: And the pest or weed control at 62 g/ha ([5]; Preemergence)?
A: 40%

Q: And the pest or weed control at 8 g/ha ([6]; 8 g ai/ha Preemergence)?
A: 0%

Q: What about the pest or weed control at 16 g/ha ([6]; 16 g ai/ha Preemergence) of the same compound?
A: 35%

Q: And the pest or weed control at 31 g/ha ([6]; 31 g ai/ha Preemergence)?
A: 75%

Q: What about the pest or weed control at 125 g/ha ([6]; 125 g ai/ha Preemergence) of the same compound?
A: 100%

Q: And the pest or weed control at 62 g/ha ([6]; Preemergence)?
A: 100%

Q: What about the pest or weed control at 8 g/ha [7, 9] of the same compound?
A: 65%

Q: And the pest or weed control at 16 g/ha [7, 10]?
A: 80%

Q: What about the pest or weed control at 31 g/ha [7, 11] of the same compound?
A: 95%

Q: And the pest or weed control at 62 g/ha [7, 12]?
A: 98%

Q: And the pest or weed control at 125 g/ha [7, 13]?
A: 98%

Q: And the pest or weed control at 8 g/ha [7, 14]?
A: 0%

Q: What about the pest or weed control at 16 g/ha [7, 15] of the same compound?
A: 20%

Q: And the pest or weed control at 31 g/ha [7, 16]?
A: 70%

Q: And the pest or weed control at 62 g/ha [7, 17]?
A: 95%

Q: What about the pest or weed control at 125 g/ha [7, 18] of the same compound?
A: 100%

Q: What about the pest or weed control at 8 g/ha ([8]; 8 g ai/ha Preemergence) of the same compound?
A: 0%

Q: And the pest or weed control at 16 g/ha ([8]; 16 g ai/ha Preemergence)?
A: 0%

Q: And the pest or weed control at 31 g/ha ([8]; 31 g ai/ha Preemergence)?
A: 0%

Q: What about the pest or weed control at 125 g/ha ([8]; 125 g ai/ha Preemergence) of the same compound?
A: 75%

Q: And the pest or weed control at 62 g/ha ([8]; Preemergence)?
A: 5%
